Measurements as given in patent US20250179083A1, “TRICYCLIC TRIAZOLO COMPOUNDS AS DGK INHIBITORS” (Incyte Corporation, priority 2023, published 2025).

What was measured:
DGKζ = target: T1, DGKζ (Homo sapiens, UniProt Q13574); experiment: In vitro DGKζ inhibition assay (ADP-Glo); assay type: biochemical; conditions: His-tagged human recombinant DGKζ 0.4 nM, 30 μM ATP, 20 μM DLG, 90 minute incubation
T1 construct: His; purchased Signal Chem D30-10H
Experimental: (§1) The DGKα and DGKζ biochemical reactions were performed using His-tagged human recombinant enzymes (Signal Chem, DGKα, #D21-10BH; DGKζ, #D30-10H)) and DLG (Dilauroyl-sn-glycerol) lipid substrate (Signal Chem, #D430-59). ADP-Glo assay was performed using ADP-Glo™ kinase Assay kit (Promega, #V9104). The reactions were carried out in assay buffer containing 40 mM Tris, pH 7.5, 0.1% CHAPS, 0.1% Prionex, 40 mM NaCl, 5 mM MgCl2, 1 mM CaCl2, and 1 mM DTT. DGKα reactions contained 0.1 nM DGKα, 50 μM ATP, and 20 μM DLG. And DGKζ reactions contained 0.4 nM DGKζ, 30 μM ATP, and 20 μM DLG.
(§2) Compounds were added with top concentration of 2 mM with 11 point, 3-fold dilution series. Enzyme solution (contains 2×DGK enzyme concentration in 1× assay buffer) was added to the plate in 2 μL/well volume, followed by 2 μL/well of substrate solution (contains 2× concentration of ATP and DLG substrate in 1× assay buffer). Plates were then centrifuged for 1 min at 1200 RPM and sealed or lidded. For 4 μL reaction volume, test compounds were therefore diluted 100× to final top concentration of 20 μM. After 90 minute incubation, reactions were quenched by addition of 2 μL/well Promega ADP-Glo Reagent, followed by centrifugation and lidding. After 60 min incubation, 2 μL/well Promega Kinase Detection Reagent was added, plates centrifuged, and incubated for 30 min. Plates were then read using Luminescence method on BMG PHERAstar FSX plate reader. Percent inhibition was calculated and IC50s were determined using 4-parameter fit in Genedata Screener. Labcyte Echo acoustic dispenser was used for compound addition, and Formulatrix Tempest liquid handler was used for all reagent dispenses.

DGKα = target: T2, DGKα (Homo sapiens, UniProt P23743); experiment: In vitro DGKα inhibition assay (ADP-Glo); assay type: biochemical; conditions: His-tagged human recombinant DGKα 0.1 nM, 50 μM ATP, 20 μM DLG, 90 minute incubation
T2 construct: His; purchased Signal Chem D21-10BH
Experimental: as §1, §2

T1 sequence (Q13574 whole entry): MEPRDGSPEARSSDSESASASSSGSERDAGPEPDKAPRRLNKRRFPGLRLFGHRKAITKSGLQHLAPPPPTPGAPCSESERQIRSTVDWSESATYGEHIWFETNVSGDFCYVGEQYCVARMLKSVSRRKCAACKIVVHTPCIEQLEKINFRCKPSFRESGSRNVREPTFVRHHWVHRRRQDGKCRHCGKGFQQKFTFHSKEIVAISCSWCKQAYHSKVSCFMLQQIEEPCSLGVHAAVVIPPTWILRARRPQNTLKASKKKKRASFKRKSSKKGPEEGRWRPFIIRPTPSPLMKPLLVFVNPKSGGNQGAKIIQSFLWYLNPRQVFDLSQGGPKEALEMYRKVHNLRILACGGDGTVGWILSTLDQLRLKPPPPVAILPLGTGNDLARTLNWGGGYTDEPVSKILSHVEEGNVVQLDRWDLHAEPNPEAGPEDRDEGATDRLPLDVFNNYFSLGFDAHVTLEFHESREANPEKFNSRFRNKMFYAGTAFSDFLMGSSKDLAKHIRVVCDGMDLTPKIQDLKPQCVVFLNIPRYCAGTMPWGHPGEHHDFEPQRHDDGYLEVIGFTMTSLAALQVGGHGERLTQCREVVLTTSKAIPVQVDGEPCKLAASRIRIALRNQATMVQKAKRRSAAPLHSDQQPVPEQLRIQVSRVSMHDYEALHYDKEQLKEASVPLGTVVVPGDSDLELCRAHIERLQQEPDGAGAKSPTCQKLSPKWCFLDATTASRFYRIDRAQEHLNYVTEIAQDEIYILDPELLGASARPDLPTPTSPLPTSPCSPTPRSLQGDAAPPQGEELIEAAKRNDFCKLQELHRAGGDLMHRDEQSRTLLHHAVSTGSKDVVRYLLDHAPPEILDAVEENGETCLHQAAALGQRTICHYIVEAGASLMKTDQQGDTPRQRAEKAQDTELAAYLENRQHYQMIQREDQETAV
T2 sequence (P23743 whole entry): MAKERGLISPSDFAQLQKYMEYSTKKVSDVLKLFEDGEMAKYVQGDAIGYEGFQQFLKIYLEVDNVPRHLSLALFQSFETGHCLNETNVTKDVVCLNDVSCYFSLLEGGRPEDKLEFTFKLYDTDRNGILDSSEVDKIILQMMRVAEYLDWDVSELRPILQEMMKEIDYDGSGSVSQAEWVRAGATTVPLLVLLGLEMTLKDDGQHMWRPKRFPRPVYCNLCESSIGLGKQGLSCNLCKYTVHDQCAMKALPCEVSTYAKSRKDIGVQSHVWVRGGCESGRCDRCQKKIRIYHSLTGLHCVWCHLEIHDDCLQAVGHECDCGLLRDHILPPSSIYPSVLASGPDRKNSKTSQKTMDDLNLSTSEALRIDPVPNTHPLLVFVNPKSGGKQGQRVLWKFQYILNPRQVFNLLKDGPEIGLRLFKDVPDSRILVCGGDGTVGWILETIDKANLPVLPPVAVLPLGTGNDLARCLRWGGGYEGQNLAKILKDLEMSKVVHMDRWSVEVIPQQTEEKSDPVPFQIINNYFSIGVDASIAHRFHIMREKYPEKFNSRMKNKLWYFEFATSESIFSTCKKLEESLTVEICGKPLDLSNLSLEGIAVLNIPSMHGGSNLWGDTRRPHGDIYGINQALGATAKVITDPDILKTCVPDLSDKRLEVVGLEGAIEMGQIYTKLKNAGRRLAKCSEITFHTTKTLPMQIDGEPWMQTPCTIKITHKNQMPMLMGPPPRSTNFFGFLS

Compound | IC50 (DGKζ) | IC50 (DGKα)
C[C@@H]1CN(c2nc3nncn3c3c2ncn3C[C@@H]2CCCO2)[C@@H](C)CN1C(c1ccc(C(F)(F)F)cc1)C1CC(F)(F)C1 (single isomer, unassigned) [Example 1] | < 20 nM | < 20 nM
C[C@@H]1CN(c2nc3nncn3c3c2ncn3C[C@@H]2CCCO2)[C@@H](C)CN1C(c1ccc(Cl)cc1)[C@@H]1CC1(F)F (single isomer, unassigned) [Example 6] | < 20 nM | < 20 nM
C[C@@H]1CN(c2nc3nncn3c3c2ncn3C[C@@H]2CCCO2)[C@@H](C)CN1C(c1ccc(Cl)cc1)[C@H]1CC1(F)F (single isomer, unassigned) [Example 7] | < 20 nM | < 20 nM
Cc1nc2c(N3C[C@@H](C)N(C(c4ccc(Cl)cc4)[C@@H]4CC4(F)F)C[C@@H]3C)nc3nncn3c2n1C[C@@H]1CCCO1 (single isomer, unassigned) [Example 8] | < 20 nM | < 20 nM
CC(C)CC(c1ccc(Cl)cc1)N1C[C@H](C)N(c2nc3nncn3c3c2ncn3C[C@@H]2CCCO2)C[C@H]1C (single isomer, unassigned) [Example 9] | < 20 nM | < 20 nM
C[C@@H]1CN(c2nc3nncn3c3c2ncn3C[C@@H]2CCCO2)[C@@H](C)CN1C(C[C@@H](C)C(F)(F)F)c1ccc(Cl)cc1 (single isomer, unassigned) [Example 11] | < 20 nM | < 20 nM
CC(CC(c1ccc(Cl)cc1)N1C[C@H](C)N(c2nc3nncn3c3c2ncn3C[C@@H]2CCCO2)C[C@H]1C)C(F)(F)F (single isomer, unassigned) [Example 12] | < 20 nM | < 20 nM
C[C@@H]1CN(c2nc3nncn3c3c2ncn3C[C@@H]2CCCO2)[C@@H](C)CN1C(c1ccc(C(F)(F)F)cc1)[C@@H]1CC1(F)F (single isomer, unassigned) [Example 13] | < 20 nM | < 20 nM
C[C@@H]1CN(c2nc3nncn3c3c2ncn3C[C@@H]2CCCO2)[C@@H](C)CN1C(c1ccc(C(F)F)c(F)c1)C1CC(F)(F)C1 (stereo partly drawn) [Example 2, 4-((2S,5R)-4-((3,3-Difluorocyclobutyl)(4-(difluoromethyl)-3-fluorophenyl)methyl)-2,5-dimethylpiperazin-1-yl)-1-(((S)-tetrahydrofuran-2-yl)methyl)-1H-[1,2,4]triazolo[3,4-b]purine] | < 20 nM | < 20 nM
Cc1nc2c(N3C[C@@H](C)N(C(c4ccc(C(F)F)cc4F)C4CC(F)(F)C4)C[C@@H]3C)nc3nncn3c2n1C[C@@H]1CCCO1 (stereo partly drawn) [Example 3, 4-((2S,5R)-4-((3,3-Difluorocyclobutyl)(4-(difluoromethyl)-2-fluorophenyl)methyl)-2,5-dimethylpiperazin-1-yl)-2-methyl-1-(((S)-tetrahydrofuran-2-yl)methyl)-1H-[1,2,4]triazolo[3,4-b]purine] | < 20 nM | < 20 nM
Cc1nc2c(N3C[C@@H](C)N(C(c4ccc(C(F)(F)F)cc4F)C4CC(F)(F)C4)C[C@@H]3C)nc3nncn3c2n1C[C@@H]1CCCO1 (stereo partly drawn) [Example 4, 4-((2S,5R)-4-((3,3-Difluorocyclobutyl)(2-fluoro-4-(trifluoromethyl)phenyl)methyl)-2,5-dimethylpiperazin-1-yl)-2-methyl-1-(((S)-tetrahydrofuran-2-yl)methyl)-1H-[1,2,4]triazolo[3,4-b]purine] | < 20 nM | < 20 nM
Cc1nc2c(N3C[C@@H](C)N(C(c4ccc(Cl)cc4F)C4CC(F)(F)C4)C[C@@H]3C)nc3nncn3c2n1C[C@@H]1CCCO1 (stereo partly drawn) [Example 5, 4-((2S,5R)-4-((4-Chloro-2-fluorophenyl)(3,3-difluorocyclobutyl)methyl)-2,5-dimethylpiperazin-1-yl)-2-methyl-1-(((S)-tetrahydrofuran-2-yl)methyl)-1H-[1,2,4]triazolo[3,4-b]purine] | < 20 nM | < 20 nM
C[C@@H]1CN(c2nc3nncn3c3c2ncn3C[C@@H]2CCCO2)[C@@H](C)CN1C(c1ccc(Cl)cc1)C1CC1 (stereo partly drawn) [Example 10, 4-((2S,5R)-4-((4-Chlorophenyl)(cyclopropyl)methyl)-2,5-dimethylpiperazin-1-yl)-1-(((S)-tetrahydrofuran-2-yl)methyl)-1H-[1,2,4]triazolo[3,4-b]purine] | < 20 nM | < 20 nM

Further lines, results first:

IC50 (DGKζ) | IC50 (DGKα) | Compound
< 20 nM | < 20 nM | CC(C)CC(c1ccc(C(F)(F)F)cc1)N1C[C@H](C)N(c2nc3nncn3c3c2ncn3C[C@@H]2CCCO2)C[C@H]1C (single isomer, unassigned) [Example 14]
< 20 nM | < 20 nM | CC(C)CC(c1ccc(Cl)c(F)c1)N1C[C@H](C)N(c2nc3nncn3c3c2ncn3C[C@@H]2CCCO2)C[C@H]1C (single isomer, unassigned) [Example 15]
< 20 nM | < 20 nM | C[C@@H]1CN(c2nc3nncn3c3c2ncn3C[C@@H]2CCCO2)[C@@H](C)CN1C(C[C@@H](C)C(F)(F)F)c1ccc(Cl)c(F)c1 (single isomer, unassigned) [Example 16]
< 20 nM | < 20 nM | CC(CC(c1ccc(Cl)c(F)c1)N1C[C@H](C)N(c2nc3nncn3c3c2ncn3C[C@@H]2CCCO2)C[C@H]1C)C(F)(F)F (single isomer, unassigned) [Example 17]
< 20 nM | < 20 nM | Cc1nc2c(N3C[C@@H](C)N(C(CC(C)C)c4ccc(Cl)c(F)c4)C[C@@H]3C)nc3nncn3c2n1C[C@@H]1CCCO1 (single isomer, unassigned) [Example 18]
< 20 nM | < 20 nM | C[C@@H]1CN(c2nc3nncn3c3c2ncn3C[C@@H]2CCCO2)[C@@H](C)CN1[C@@H](c1ccc(Cl)cc1)c1ccc(Cl)cn1 (single isomer, unassigned) [Example 21]
< 20 nM | < 20 nM | C[C@@H]1CN(c2nc3nncn3c3c2ncn3C[C@@H]2CCCO2)[C@@H](C)CN1[C@H](c1ccc(Cl)cc1)c1ccc(Cl)cn1 (single isomer, unassigned) [Example 22]
< 20 nM | < 20 nM | Cc1nc2c(N3C[C@@H](C)N(C(c4ccc(Cl)c(F)c4)C(C)C)C[C@@H]3C)nc3nncn3c2n1C[C@@H]1CCCO1 (single isomer, unassigned) [Example 23]
< 20 nM | < 20 nM | Cc1nc2c(N3C[C@@H](C)N(C(c4ccc(C(F)(F)F)cc4)C4CC(F)(F)C4)C[C@@H]3C)cc3nncn3c2n1C[C@@H]1CCCO1 (single isomer, unassigned) [Example 49]
20 to 200 nM | < 20 nM | C[C@@H]1CN(c2cc3nncn3c3c2ncn3C[C@@H]2CCCO2)[C@@H](C)CN1C(c1ccc(Cl)cc1)[C@@H]1CC1(F)F (single isomer, unassigned) [Example 50]
< 20 nM | < 20 nM | CC(C)CC(c1ccc(Cl)cc1)N1C[C@H](C)N(c2cc3nncn3c3c2ncn3C[C@@H]2CCCO2)C[C@H]1C (single isomer, unassigned) [Example 51]
< 20 nM | < 20 nM | CC[C@@H]1CN(c2cc3nncn3c3c2nc(C)n3C[C@@H]2CCCO2)[C@@H](C)CN1C(c1ccc(Cl)cc1)C1CC(F)(F)C1 (single isomer, unassigned) [Example 52]
< 20 nM | < 20 nM | Cc1nc2c(N3C[C@@H](C)N(C(CC(C)C)c4ccc(Cl)cc4)C[C@@H]3C)nc3nncn3c2n1C[C@@H]1CCCO1 (single isomer, unassigned) [Example 53]
< 20 nM | < 20 nM | Cc1nc2c(N3C[C@@H](C)N([C@H](c4ccc(Cl)cc4)[C@H]4CC4(F)F)C[C@@H]3C)nc3nncn3c2n1C[C@@H]1CCCO1 (single isomer, unassigned) [Example 55]
< 20 nM | < 20 nM | Cc1nc2c(N3C[C@@H](C)N([C@@H](c4ccc(Cl)cc4)[C@H]4CC4(F)F)C[C@@H]3C)nc3nncn3c2n1C[C@@H]1CCCO1 (single isomer, unassigned) [Example 56]
< 20 nM | < 20 nM | C[C@@H]1CN(c2cc3nncn3c3c2ncn3C[C@@H]2CCCO2)[C@@H](C)CN1C(c1ccc(Cl)cc1)C1CC(F)(F)C1 (single isomer, unassigned) [Example 61]
< 20 nM | < 20 nM | Cc1nc2c(N3C[C@@H](C)N(C(c4ccc(Cl)cc4)C4CC(F)(F)C4)C[C@@H]3C)cc3nncn3c2n1C[C@@H]1CCCO1 (single isomer, unassigned) [Example 62]
< 20 nM | < 20 nM | C[C@@H]1CN(c2nc3nncn3c3c2ncn3C[C@@H]2CCCO2)[C@@H](C)CN1C(c1ccc(C(F)(F)F)cn1)c1ccc(C(F)(F)F)cn1 [Example 19, 4-((2S,5R)-4-(Bis(5-(trifluoromethyl)pyridin-2-yl)methyl)-2,5-dimethylpiperazin-1-yl)-1-(((S)-tetrahydrofuran-2-yl)methyl)-1H-[1,2,4]triazolo[3,4-b]purine]
